In PubChem BioAssay (NCI):
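Assay format: 96-well plates, 48-hour exposure. At the GI50, growth is halved. Definition used: TGI = concentration required for complete inhibition of growth.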

What was measured:
Test in all cases: NCI anticancer screen, dose series, 48 h
UACC-62 melanoma = tested on: UACC-62 melanoma
HT29 colon = tested on: HT29 colon
KM12 colon = tested on: KM12 colon
SW-620 colon = tested on: SW-620 colon
RPMI-8226 leukemia = tested on: RPMI-8226 leukemia
HCT-15 colon = tested on: HCT-15 colon
SK-MEL-28 melanoma = tested on: SK-MEL-28 melanoma
EKVX NSCLC = tested on: EKVX NSCLC
NCI/ADR-RES ovarian = tested on: NCI/ADR-RES ovarian
SR leukemia = tested on: SR leukemia

Structure (SMILES)	TGI (UACC-62 melanoma) [µM]	TGI (HT29 colon) [µM]	TGI (KM12 colon) [µM]	TGI (SW-620 colon) [µM]	TGI (RPMI-8226 leukemia) [µM]	TGI (HCT-15 colon) [µM]	TGI (SK-MEL-28 melanoma) [µM]	TGI (EKVX NSCLC) [µM]	TGI (NCI/ADR-RES ovarian) [µM]	TGI (SR leukemia) [µM]	GI50 (UACC-62 melanoma) [µM]	GI50 (HT29 colon) [µM]	GI50 (KM12 colon) [µM]	GI50 (SW-620 colon) [µM]	GI50 (RPMI-8226 leukemia) [µM]	GI50 (HCT-15 colon) [µM]	GI50 (SK-MEL-28 melanoma) [µM]	GI50 (SR leukemia) [µM]	GI50 (EKVX NSCLC) [µM]	GI50 (NCI/ADR-RES ovarian) [µM]
Cn1ncc2c(Nc3cccc(Cl)c3)nc(Nc3cccc(Cl)c3)nc21	38.5	> 56.8	> 42.2	> 58.2	19.8	30.9	41.2	54.8	37.3	–	–	–	–	–	–	–	–	–	–	–
CCOC(=O)C(Cc1cn(C(C)=O)c2ccccc12)P(=O)(OCC)OCC (stereo not drawn)	–	> 100	–	> 100	> 100	> 100	> 100	–	> 100	> 100	–	–	–	–	–	–	–	–	–	–
CC(C)C(=O)CC(c1ccc(Cl)cc1)N1N=C(C(C)C)CC1c1ccc(Cl)cc1 (stereo not drawn)	> 100	> 100	> 100	> 100	> 100	–	> 100	> 100	–	28.2	–	–	–	–	–	–	–	–	–	–
N#CCCN(CCC#N)c1ccc(/C=C(\NC(=O)c2cc([N+](=O)[O-])ccc2Cl)C(=O)Nc2ccccc2)cc1	> 100	–	> 100	–	> 100	> 100	> 100	> 100	–	> 100	–	–	–	–	–	–	–	–	–	–
COc1ccc(C(O)(c2ccccc2)c2nccc3ccccc23)cc1 (stereo not drawn)	> 100	> 100	> 100	–	> 100	> 100	> 100	36.9	> 100	> 100	–	–	–	–	–	–	–	–	–	–
Cc1[nH]c(=O)[nH]c(=O)c1/C=C/C(=O)NC(CO)CS(=O)Cc1ccccc1 (stereo not drawn)	> 300	> 300	> 300	> 300	> 300	> 300	> 300	> 300	> 300	–	–	–	–	–	–	–	–	–	–	–
O=C(O)CCc1nc2ccccc2[nH]1	> 100	> 100	> 100	> 100	> 100	> 100	> 100	> 100	> 100	> 100	–	–	–	–	–	–	–	–	–	–
C/C(=N\NC(=S)N(C)C)c1nc2ncccc2[nH]1	2.7	> 100	–	> 100	> 100	> 100	> 100	> 100	12.6	> 100	–	–	–	–	–	–	–	–	–	–
OCCCNc1ncnc2[nH]ncc12	> 100	> 100	> 100	> 100	> 100	> 100	> 100	> 100	> 100	–	–	–	–	–	–	–	–	–	–	–
O=C(Nc1ccc(-n2cc(-c3ccncc3)c(-c3ccc(O)c(Cl)c3)n2)cc1)Nc1ccc(Cl)c(C(F)(F)F)c1	14.8	25.2	12.8	20	5.32	11.8	15	25.4	52.7	21.6	3.9	10.2	3.8	4.55	1.99	2.95	3.64	3.96	3.21	4.1
Cn1ccc(C(=O)NCCN(CCNC(=O)c2ccn(C)c(=O)c2O)CCNC(=O)c2ccn(C)c(=O)c2O)c(O)c1=O	> 100	> 100	> 100	> 100	> 100	> 100	> 100	–	> 100	> 100	–	–	–	–	–	–	–	–	–	–
C/C(=N\NC(=S)NCCCCNC(=S)N/N=C(\C)c1ccccn1)c1ccccc1	7.03	> 100	> 100	> 100	14.3	> 100	> 100	> 100	3.86	2.17	–	–	–	–	–	–	–	–	–	–
Cc1c(Cl)nc(Cl)nc1Cl	9.42	6.4	6.15	4.68	–	1.25	8.5	3.82	4.45	10.8	–	–	–	–	–	–	–	–	–	–
c1ccc(C(NC2=NCCO2)c2ccccc2)cc1	> 10	> 10	> 10	> 10	> 10	> 10	> 10	> 10	> 10	> 10	–	–	–	–	–	–	–	–	–	–
CCCn1cc2c(SC)nc(SC)nc2n1	–	> 100	> 100	> 100	> 100	> 100	> 100	> 100	–	> 100	–	–	–	–	–	–	–	–	–	–
